Data: US20180271923A1, “COMPOSITION FOR PREVENTING OR TREATING MENOPAUSAL DISORDERS, CONTAINING TETRAGONIA TETRAGONOIDES (PALL.) KUNTZE EXTRACT” (Korea Institute of Oriental Medicine, priority 2015, published 2018)
Marks after values point to notes of the source that are not given here.

Columns and labels:
Format in all cases: in vivo
ovariectomized rats [1] = assay: Evaluation on menopause inducement in ovariectomized rats (weight of uterus, serum 17β-estradiol by RIA kit); conditions: n = 12, means ± SD, Table 1
Procedure: Rats were ovariectomized to induce menopause, and weight of uterus and serum levels of 17β-estradiol that is a kind of female hormones were measured to determine whether menopause was induced in the rats. Specifically, the rats were sacrificed, and then their uteri were removed and weighed. A serum concentration of 17β-estradiol was measured with an RIA kit (Linco Research Inc.).

ovariectomized rats [2] = assay: Serum triglyceride, glucose, insulin, cholesterol levels and HOMA-IR in overnight-fasted ovariectomized rats; conditions: n = 12, means ± SD
Procedure: In order to confirm efficacies of the Tetragonia tetragonoides (Pall.) Kuntze extract prepared according to Preparation Example 1 for ameliorating menopausal obesity, rats were ovariectomized and, at the same time, obesity-induced. The rats were fed with the Tetragonia tetragonoides (Pall.) Kuntze extract, and effects of the extract on obesity-related parameters in blood were evaluated. The ovariectomized rats were fed with the Tetragonia tetragonoides (Pall.) Kuntze by the method according to Example 1-1. Then, at the end of the experiment, the rats were fasted overnight and masses of serum glucose, insulin, and triglyceride were measured. Specifically, the rats were fasted for 16 hours, and then blood was collected from tails. Fasting serum glucose levels were measured by a Beckman glucometer and serum insulin concentrations were measured by radioimmunoassay. Fasting blood glucose, food and water intake, and body weight were measured at 10 a.m. on every Tuesday. Based on the above results, a homeostasis model assessment of insulin resistance (HOMA-IR) concentration which is used as a marker of insulin resistance was calculated, and the following Equation 1 was used for such calculation. HOMA-IR=fasting insulin(μIU/ml)×fasting glucose(mM)/22.5 [Equation 1]

ovariectomized rats [3] = assay: Body weight, visceral fat, uterus weight and calorie uptake at end of experiment in ovariectomized rats on high-fat diet
Procedure: In order to confirm efficacies of the Tetragonia tetragonoides (Pall.) Kuntze extract prepared according to Preparation Example 1 for ameliorating menopausal obesity, rats were ovariectomized and, at the same time, obesity-induced. The rats were fed with the Tetragonia tetragonoides (Pall.) Kuntze extract, and effects of the extract on visceral fat were evaluated. Specifically, the ovariectomized rats were fed with a high-fat diet (HFD) consisting of 40% energy (En %) of carbohydrate, 20 En % of protein, and 40 En % of fat, along with dextrin. The high-fat diet was made to contain 2% (w/w) of the Tetragonia tetragonoides (Pall.) Kuntze extract, and the rats were offered ad libitum access to the diet for 8 weeks. On the other hand, in the positive-control, the ovariectomized rats received 17β-estradiol which is a hormone preparation and were fed with a diet in which the high fat diet is mixed with dextrin for 8 weeks. Then, at the end of the experiment, a body weight, a mass of visceral fat including peri-uterine fat and fat in retroperitoneum, an energy consumption, and the like were measured.

ovariectomized rats [4] = assay: Energy consumption by indirect calorimetry in ovariectomized rats; conditions: indirect calorimetry after 8 weeks, 6 hours fasting, n = 12, means ± SD
Source text: Specifically, the ovariectomized rats were fed with a high-fat diet (HFD) consisting of 40% energy (En %) of carbohydrate, 20 En % of protein, and 40 En % of fat, along with dextrin. The high-fat diet was made to contain 2% (w/w) of the Tetragonia tetragonoides (Pall.) Kuntze extract, and the rats were offered ad libitum access to the diet for 8 weeks. On the other hand, in the positive-control, the ovariectomized rats received 17β-estradiol which is a hormone preparation and were fed with a diet in which the high fat diet is mixed with dextrin for 8 weeks. Then, at the end of the experiment, a body weight, a mass of visceral fat including peri-uterine fat and fat in retroperitoneum, an energy consumption, and the like were measured. The energy consumption was analyzed by indirect calorimetry. Specifically, after the Tetragonia tetragonoides (Pall.) Kuntze extract was fed for 8 weeks, and a fasting state of 6 hours was induced, the energy consumption was measured at the time of beginning of a dark period in light/dark cycle. In order to analyze calorimetric parameters, a metabolic chamber (airflow=800 ml/min) equipped with a computer-controlled O2 and CO2 measurement system (BIOPAC Systems, Inc., Goleta, Calif.) was utilized, and respiratory quotient (RQ) and resting energy expenditure (REE) were calculated using equations. An average oxygen uptake (VO2) and an average carbon dioxide emission (VCO2) were measured over 30 minutes. After the experiment, data were averaged at 1 minute intervals and the VO2 and VCO2 values were calibrated to a body size (kg^0.75). Oxidation of carbohydrate and fat was calculated as a non-protein oxygen uptake, that is, a relative oxidation rate and an oxygen amount consumed per gram (g) of oxidized substrate.

[5] = serum, overnight-fasted ovariectomized rats
[6] = ovariectomized rats, high-fat diet, 8 weeks, n = 12, means ± SD

- Weight of uterus (ovariectomized rats [1]): 0.61 ± 0.22^a g
SMILES: C[C@]12CC[C@@H]3c4ccc(O)cc4CC[C@H]3[C@@H]1CC[C@@H]2O [Positive-control, 17β-estradiol]
- HOMA-IR (ovariectomized rats [2]; fasting insulin × fasting glucose / 22.5 (Equation 1)): 6.8 ± 0.9^c
- Glucose levels (ovariectomized rats [2]; serum, overnight-fasted (16 hours) ovariectomized rats, end of experiment): 109 ± 13^b mg/dL
- HDL cholesterol (ovariectomized rats [2]; [5]): 23.2 ± 1.5^a mg/dL
- Total cholesterol (ovariectomized rats [2]; [5]): 85.0 ± 7.6^c mg/dL
- Triglyceride levels (ovariectomized rats [2]; [5]): 65.7 ± 5.8^b mg/dL
- Insulin levels (ovariectomized rats [2]; serum, overnight-fasted ovariectomized rats, radioimmunoassay): 1.14 ± 0.19^b ng/mL
- weight of uterus (proliferation of uterus, side effect of hormone therapies) (ovariectomized rats [3]; in words): increase
- Body weight (ovariectomized rats [3]; ovariectomized rats, high-fat diet with 2% (w/w) extract for 8 weeks (positive-control: 17β-estradiol), end of experiment, n = 12, means ± SD): 369 ± 26^b g
- Body weight gain (ovariectomized rats [3]; [6]): 70.0 ± 11.5^c g
- Fat in retroperitoneum (ovariectomized rats [3]; [6]): 5.7 ± 1.6^c g
- Peri-uterine fat (ovariectomized rats [3]; [6]): 7.2 ± 1.6^d g
- Weight of uterus (ovariectomized rats [3]; ovariectomized rats, high-fat diet, 8 weeks, n = 12, means ± SD, Table 2): 0.61 ± 0.22^a g
- Visceral fat (ovariectomized rats [3]; peri-uterine fat and fat in retroperitoneum, ovariectomized rats, high-fat diet, 8 weeks, n = 12, means ± SD): 12.9 ± 2.6^c g
- Daily energy consumption (ovariectomized rats [4]; beginning of dark period): 117 ± 15^a kcal/kg^0.75/day
- Carbohydrate oxidation (ovariectomized rats [4]): 5.6 ± 0.7^b mg/kg^0.75/min
- Fat oxidation (ovariectomized rats [4]): 6.9 ± 0.8^b mg/kg^0.75/min
